Legend:
Conditions in all cases: 72 h
[1] = system: BV-173
In short: (§1)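 Each of fifteen myeloid leukaemia cell lines was seeded in RPMI 1640 at a density titrated to its linear growth range. The cells were incubated for 72 h at 37 °C and 5% CO2 with compounds at five tenfold doses from 1 to 10,000 nM, in duplicate. After ATP luminescence was normalised to vehicle and to a positive control at 10 µM, four-parameter log-logistic curves were fitted. These curves gave the IC50.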

[2] = system: HEL
In short: as §1

[3] = system: HL-60
In short: as §1

[4] = system: K-562
In short: as §1

[5] = system: KCL-22
In short: as §1

[6] = system: KG-1
In short: as §1

[7] = system: KU-812
In short: as §1

[8] = system: LAMA-84
In short: as §1

[9] = system: ML-2
In short: as §1

[10] = system: MOLM-13
In short: as §1

[11] = system: MV4-11
In short: as §1

[12] = system: Mono-Mac-6
In short: as §1

[13] = system: NOMO-1
In short: as §1

[14] = system: SHI-1
In short: as §1

[15] = system: THP-1
In short: as §1

[16] = system: BV-173; test: cell viability (% survival relative to DMSO control, bortezomib = 0%); higher = less cytotoxic
In short: (§2)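 Percent survival is reported as the mean of duplicate wells. Cells from 10 AML and 5 CML lines were plated in 384-well plates containing compounds at 1, 10, 100, 1000 or 10000 nM and kept for 72 h at 37 °C in 5% CO2. Readout used CellTiter-Glo luminescence, scaled so that vehicle equals 100% and a 10 µM positive control equals 0%.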

[17] = system: HEL; test: as above
In short: as §2

[18] = system: HL-60; test: as above
In short: as §2

[19] = system: K-562; test: as above
In short: as §2

[20] = system: KCL-22; test: as above
In short: as §2

[21] = system: KG-1; test: as above
In short: as §2

[22] = system: KU-812; test: as above
In short: as §2

[23] = system: LAMA-84; test: as above
In short: as §2

[24] = system: ML-2; test: as above
In short: as §2

[25] = system: MOLM-13; test: as above
In short: as §2

[26] = system: MV4-11; test: as above
In short: as §2

[27] = system: Mono-Mac-6; test: as above
In short: as §2

[28] = system: NOMO-1; test: as above
In short: as §2

[29] = system: SHI-1; test: as above
In short: as §2

[30] = system: THP-1; test: as above
In short: as §2

Cc1nnc(-c2ccc(N3CCC(Oc4ccccc4C(F)(F)F)CC3)nn2)s1 [MF-438]
Conditions | IC50 (cell viability) [µM]
[1] | > 10
[2] | > 10
[3] | > 10
[4] | 0.0472
[5] | 2.29
[6] | > 10
[7] | > 10
[8] | > 10
[9] | > 10
[10] | 0.0687
[11] | 9.32
[12] | > 10
[13] | > 10
[14] | > 10
[15] | > 10

cell viability [%]
Conditions | 1 nM | 10 nM | 100 nM | 1000 nM | 10000 nM
[16] | 96.1 | 108 | 89.4 | 137 | 99.4
[17] | 102 | 91.9 | 106 | 122 | 106
[18] | 93.6 | 92.5 | 87 | 127 | 56.5
[19] | 97 | 103 | 32.4 | 38.2 | 38.1
[20] | 103 | 99.6 | 69 | 61.3 | 49.5
[21] | 62.5 | 133 | 94.3 | 115 | 106
[22] | 93.9 | 103 | 83.9 | 113 | 97.5
[23] | 93.4 | 85.4 | 88 | 76.9 | 92.6
[24] | 96 | 114 | 98.6 | 117 | 88.3
[25] | 63.7 | 86.7 | 33.9 | 41.3 | 36.6
[26] | 91 | 109 | 91.2 | 99.2 | 45.3
[27] | 101 | 100 | 95.5 | 99 | 103
[28] | 97.9 | 99.2 | 92.8 | 108 | 103
[29] | 98.9 | 98.2 | 102 | 113 | 80.9
[30] | 97.9 | 110 | 96.5 | 102 | 98.1

CNC(=C[N+](=O)[O-])NCCSCc1ccc(CN(C)C)o1 [Ranitidine]
Conditions | IC50 (cell viability) [µM]
[1] | > 10
[2] | > 10
[3] | > 10
[4] | > 10
[5] | > 10
[6] | > 10
[7] | > 10
[8] | > 10
[9] | > 10
[10] | > 10
[11] | > 10
[12] | > 10
[13] | > 10
[14] | > 10
[15] | > 10

cell viability [%]
Conditions | 1 nM | 10 nM | 100 nM | 1000 nM | 10000 nM
[16] | 96.7 | 96.1 | 105 | 96.9 | 108
[17] | 113 | 104 | 107 | 104 | 92.4
[18] | 98.1 | 156 | 97.5 | 95.5 | 121
[19] | 108 | 92.1 | 93.5 | 97.3 | 103
[20] | 100 | 101 | 103 | 109 | 92.9
[21] | 104 | 85.8 | 126 | 174 | 163
[22] | 109 | 101 | 97.4 | 96.8 | 107
[23] | 107 | 89.3 | 105 | 104 | 102
[24] | 97.4 | 113 | 101 | 100 | 98.9
[25] | 97.9 | 94.2 | 91.6 | 102 | 117
[26] | 98.5 | 109 | 108 | 114 | 104
[27] | 94.6 | 96.6 | 115 | 95.6 | 113
[28] | 96.3 | 96.2 | 108 | 98.7 | 101
[29] | 98.6 | 107 | 96.4 | 122 | 104
[30] | 105 | 103 | 98.2 | 99.6 | 102

COc1ccc2c(c1)c(CC(=O)O)c(C)n2C(=O)c1ccc(Cl)cc1 [Indomethacine]
Conditions | IC50 (cell viability) [µM]
[1] | > 10
[2] | > 10
[3] | > 10
[4] | > 10
[5] | > 10
[6] | > 10
[7] | > 10
[8] | > 10
[9] | > 10
[10] | > 10
[11] | > 10
[12] | > 10
[13] | > 10
[14] | > 10
[15] | > 10

cell viability [%]
Conditions | 1 nM | 10 nM | 100 nM | 1000 nM | 10000 nM
[16] | 89.5 | 94.1 | 105 | 112 | 81.8
[17] | 109 | 92.8 | 94.3 | 92.7 | 95.5
[18] | 124 | 104 | 100 | 84.6 | 147
[19] | 95.2 | 101 | 96 | 103 | 90.4
[20] | 113 | 84 | 96 | 110 | 102
[21] | 110 | 106 | 98 | 99.3 | 97.6
[22] | 100 | 101 | 95.6 | 96.4 | 80
[23] | 86.4 | 98.5 | 92.9 | 107 | 91.5
[24] | 108 | 98.3 | 98.4 | 90.4 | 94.1
[25] | 105 | 93.7 | 98.2 | 108 | 94.5
[26] | 86.9 | 82.1 | 102 | 95.3 | 92.2
[27] | 97.9 | 93.8 | 99.8 | 112 | 92.3
[28] | 98.3 | 107 | 100 | 110 | 95.7
[29] | 120 | 95.3 | 99 | 94.2 | 94.3
[30] | 100 | 98.8 | 105 | 110 | 97.8

Fc1ccc(CNc2ncnc3ccc(F)cc23)cc1 [Spautin 1]
Conditions | IC50 (cell viability) [µM]
[1] | 2.75
[2] | 9.11
[3] | 9.64
[4] | 1.34
[5] | > 10
[6] | 1.57
[7] | 1.39
[8] | 1.49
[9] | > 10
[10] | > 10
[11] | 1.52
[12] | > 10
[13] | > 10
[14] | > 10
[15] | > 10

cell viability [%]
Conditions | 1 nM | 10 nM | 100 nM | 1000 nM | 10000 nM
[16] | 98.3 | 96.8 | 110 | 79.7 | 35.1
[17] | 91.3 | 98.3 | 94.1 | 89.4 | 47.9
[18] | 105 | 102 | 110 | 117 | 47.4
[19] | 103 | 97 | 100 | 69.8 | 16.9
[20] | 112 | 113 | 108 | 88.6 | 61.9
[21] | 108 | 98.5 | 103 | 66.8 | 32.6
[22] | 96.8 | 96.3 | 94.5 | 62.3 | 12.6
[23] | 103 | 103 | 93.5 | 66.4 | 26.7
[24] | 108 | 84.7 | 97 | 87.9 | 63.2
[25] | 93.1 | 89.7 | 122 | 108 | 50.9
[26] | 98.8 | 92.4 | 102 | 64.7 | 33
[27] | 109 | 96.1 | 119 | 106 | 59
[28] | 103 | 102 | 110 | 97.3 | 77.1
[29] | 113 | 100 | 106 | 95.9 | 62.2
[30] | 95.5 | 103 | 103 | 106 | 79.1

CC(=O)N[C@@H](CS)C(=O)O [Acetylcysteine]
Conditions | IC50 (cell viability) [µM]
[1] | > 10
[2] | > 10
[3] | > 10
[4] | > 10
[5] | > 10
[6] | > 10
[7] | > 10
[8] | > 10
[9] | > 10
[10] | > 10
[11] | > 10
[12] | > 10
[13] | > 10
[14] | > 10
[15] | > 10

cell viability [%]
Conditions | 1 nM | 10 nM | 100 nM | 1000 nM | 10000 nM
[16] | 109 | 96.7 | 92.2 | 98.9 | 95.2
[17] | 110 | 90.4 | 90 | 113 | 104
[18] | 107 | 93.1 | 93.5 | 125 | 122
[19] | 106 | 97.9 | 77.2 | 96.2 | 103
[20] | 117 | 92.8 | 102 | 93.3 | 97.6
[21] | 113 | 98.3 | 101 | 88.9 | 101
[22] | 102 | 93.4 | 87.9 | 97.1 | 97
[23] | 96.2 | 96.8 | 88 | 101 | 101
[24] | 104 | 91.3 | 97.3 | 89.2 | 102
[25] | 107 | 107 | 81.8 | 110 | 105
[26] | 112 | 102 | 102 | 111 | 112
[27] | 114 | 96.3 | 97 | 100 | 105
[28] | 105 | 99 | 98.8 | 93.5 | 103
[29] | 100 | 96.5 | 105 | 97.2 | 110
[30] | 103 | 98.8 | 101 | 100 | 102

c1ccc2nc(-c3nnc4sc(-c5cnccn5)nn34)ccc2c1
Conditions | IC50 (cell viability) [µM]
[1] | > 10
[2] | > 10
[3] | > 10
[4] | > 10
[5] | > 10
[6] | > 10
[7] | > 10
[8] | > 10
[9] | > 10
[10] | > 10
[11] | > 10
[12] | > 10
[13] | > 10
[14] | > 10
[15] | > 10

cell viability [%]
Conditions | 1 nM | 10 nM | 100 nM | 1000 nM | 10000 nM
[16] | 103 | 105 | 103 | 100 | 96.1
[17] | 95.3 | 96 | 93.7 | 95.1 | 99.4
[18] | 108 | 100 | 102 | 67.9 | 103
[19] | 110 | 105 | 107 | 108 | 105
[20] | 97.3 | 109 | 109 | 105 | 95.7
[21] | 110 | 107 | 99.4 | 91.9 | 84.6
[22] | 105 | 115 | 94.9 | 91.8 | 95.7
[23] | 100 | 104 | 105 | 95.4 | 94.1
[24] | 108 | 122 | 111 | 86.5 | 110
[25] | 99.6 | 108 | 95.3 | 86.7 | 90.4
[26] | 96.4 | 107 | 108 | 88 | 111
[27] | 111 | 108 | 108 | 91.1 | 98.5
[28] | 106 | 109 | 99.5 | 93.7 | 101
[29] | 108 | 107 | 116 | 91.9 | 98
[30] | 105 | 103 | 105 | 88.5 | 99.3

Reference: the supplement of paper PMC8671470
